Test system: 349418-098-R tumor spheroid viability
Experiment: Anticancer human tumor 349418-098-R patient-derived lung adenocarcinoma cell line growth inhibition
Conditions: spheroids with HUVEC and MSC; for IC50: curve of first compound; for viability, T/C: stronger effect = lower value
Outline: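 Complex tumor spheroids combined malignant cells with endothelial cells and mesenchymal stem cells. DNA-damaging drugs and DNA repair inhibitors were tested alone and in combination, at half-log dilutions down from clinical Cmax (top 10 microM if Cmax unknown), 0.25% DMSO final.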

[1] = second compound 1 µM, first compound 0.00949 µM
[2] = second compound 1 µM, first compound 0.03 µM
[3] = second compound 1 µM, first compound 0.0949 µM
[4] = second compound 1 µM, first compound 0.3 µM
[5] = second compound 1 µM, first compound 0.949 µM
[6] = second compound 1 µM, first compound 3 µM
[7] = second compound 3.16 µM, first compound 0.00949 µM
[8] = second compound 3.16 µM, first compound 0.03 µM
[9] = second compound 3.16 µM, first compound 0.0949 µM
[10] = second compound 3.16 µM, first compound 0.3 µM
[11] = second compound 3.16 µM, first compound 0.949 µM
[12] = second compound 3.16 µM, first compound 3 µM
[13] = second compound 10 µM, first compound 0.00949 µM
[14] = second compound 10 µM, first compound 0.03 µM
[15] = second compound 10 µM, first compound 0.0949 µM
[16] = second compound 10 µM, first compound 0.3 µM
[17] = second compound 10 µM, first compound 0.949 µM
[18] = second compound 10 µM, first compound 3 µM
[19] = second compound 31.6 µM, first compound 0.00949 µM
[20] = second compound 31.6 µM, first compound 0.03 µM
[21] = second compound 31.6 µM, first compound 0.0949 µM
[22] = second compound 31.6 µM, first compound 0.3 µM
[23] = second compound 31.6 µM, first compound 0.949 µM
[24] = second compound 31.6 µM, first compound 3 µM
[25] = second compound 100 µM, first compound 0.00949 µM
[26] = second compound 100 µM, first compound 0.03 µM
[27] = second compound 100 µM, first compound 0.0949 µM
[28] = second compound 100 µM, first compound 0.3 µM
[29] = second compound 100 µM, first compound 0.949 µM
[30] = second compound 100 µM, first compound 3 µM
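Further: spheroids exposed to compound for 7 days before measurement.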
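Wherever viability, T/C is given: percent of vehicle control viability with 100% = DMSO-treated spheroids.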

SMILES	IC50 (second compound 1 µM)	IC50 (second compound 3.16 µM)	IC50 (second compound 10 µM)	IC50 (second compound 31.6 µM)	IC50 (second compound 100 µM)	viability, T/C [3]	viability, T/C [4]	viability, T/C [5]	viability, T/C [6]	viability, T/C [9]	viability, T/C [10]	viability, T/C [11]	viability, T/C [12]	viability, T/C [15]	viability, T/C [16]	viability, T/C [17]	viability, T/C [18]	viability, T/C [21]	viability, T/C [22]	viability, T/C [23]	also measured
CNCc1ccc(-c2cc(-c3nc(-c4ccc(S(=O)(=O)C(C)C)cc4)cnc3N)on2)cc1 + Cn1nnc2c(C(N)=O)ncn2c1=O	275 nM	382 nM	401 nM	260 nM	214 nM	99.6%	45.4%	10.3%	1.84%	102%	61.2%	7.59%	1.85%	97.9%	64.5%	7.44%	1.34%	99.9%	42.7%	5.84%	viability, T/C [1]: 103%; viability, T/C [2]: 100%; viability, T/C [7]: 108%; viability, T/C [8]: 101%; viability, T/C [13]: 104%; viability, T/C [14]: 103%; viability, T/C [19]: 104%; viability, T/C [20]: 102%; viability, T/C [24]: 0.96%; viability, T/C [25]: 104%; viability, T/C [26]: 106%; viability, T/C [27]: 105%; viability, T/C [28]: 27.1%; viability, T/C [29]: 4.72%; viability, T/C [30]: 0.67%
Cc1sc2c(c1C)C(c1ccc(Cl)cc1)=NC(CC(=O)Nc1ccc(O)cc1)c1nnc(C)n1-2 (stereo not given) + Cn1nnc2c(C(N)=O)ncn2c1=O	143 nM	133 nM	129 nM	154 nM	129 nM	67.8%	16.6%	1.96%	0.51%	62.7%	16.5%	1.3%	0.49%	63.7%	10.9%	1.25%	0.39%	72.1%	19.3%	1.26%	viability, T/C [1]: 99%; viability, T/C [2]: 102%; viability, T/C [7]: 99.2%; viability, T/C [8]: 105%; viability, T/C [13]: 99.2%; viability, T/C [14]: 102%; viability, T/C [19]: 103%; viability, T/C [20]: 103%; viability, T/C [24]: 0.43%; viability, T/C [25]: 106%; viability, T/C [26]: 105%; viability, T/C [27]: 64.9%; viability, T/C [28]: 9.26%; viability, T/C [29]: 0.75%; viability, T/C [30]: 0.45%
Cn1ncnc1[C@H]1c2n[nH]c(=O)c3cc(F)cc(c23)N[C@@H]1c1ccc(F)cc1 + Cn1nnc2c(C(N)=O)ncn2c1=O	1580 nM	1470 nM	1100 nM	131 nM	< 9.49 nM	94.3%	99.9%	82.9%	8.45%	97.5%	95.4%	77.1%	6.31%	95.1%	94%	56.2%	6.77%	56.5%	35.6%	12.3%	viability, T/C [1]: 99%; viability, T/C [2]: 99.2%; viability, T/C [7]: 100%; viability, T/C [8]: 99.9%; viability, T/C [13]: 104%; viability, T/C [14]: 98%; viability, T/C [19]: 97.7%; viability, T/C [20]: 77.7%; viability, T/C [24]: 3.26%; viability, T/C [25]: 16.3%; viability, T/C [26]: 12.1%; viability, T/C [27]: 9.69%; viability, T/C [28]: 7.58%; viability, T/C [29]: 6.59%; viability, T/C [30]: 1.86%
O=C(c1cc(Cc2n[nH]c(=O)c3ccccc23)ccc1F)N1CCN(C(=O)C2CC2)CC1 + Cn1nnc2c(C(N)=O)ncn2c1=O	> 30000 nM	> 30000 nM	23200 nM	7270 nM	1810 nM	98.5%	98.9%	103%	98.7%	99.5%	100%	99%	99%	103%	103%	102%	96.8%	102%	98.5%	100%	viability, T/C (second compound 1 µM, first compound 9.49 µM): 79.9%; viability, T/C (second compound 1 µM, first compound 30 µM): 57%; viability, T/C (second compound 3.16 µM, first compound 9.49 µM): 89.1%; viability, T/C (second compound 3.16 µM, first compound 30 µM): 60.3%; viability, T/C (second compound 10 µM, first compound 9.49 µM): 81.9%; viability, T/C (second compound 10 µM, first compound 30 µM): 40.5%; viability, T/C [24]: 94.7%; viability, T/C (second compound 31.6 µM, first compound 9.49 µM): 36.6%; viability, T/C (second compound 31.6 µM, first compound 30 µM): 16%; viability, T/C [27]: 96.5%; viability, T/C [28]: 98%; viability, T/C [29]: 78.2%; viability, T/C [30]: 27.9%; viability, T/C (second compound 100 µM, first compound 9.49 µM): 10.2%; viability, T/C (second compound 100 µM, first compound 30 µM): 9.95%

Source: PubChem BioAssay AID1845197 (Molecular Pharmacology Branch, DTP, NCI, 2023)
